From patent US12187728B2 (Raze Therapeutics, Inc., priority 2015, dated 2025)

Molecular target: T1, Human MTHFD2 (Homo sapiens, UniProt P13995)
T1 construct: residues 36-350 in Uniport ID P13995; His6 (N); made in house; host or cells: E. coli
T1 sequence (P13995 36-350): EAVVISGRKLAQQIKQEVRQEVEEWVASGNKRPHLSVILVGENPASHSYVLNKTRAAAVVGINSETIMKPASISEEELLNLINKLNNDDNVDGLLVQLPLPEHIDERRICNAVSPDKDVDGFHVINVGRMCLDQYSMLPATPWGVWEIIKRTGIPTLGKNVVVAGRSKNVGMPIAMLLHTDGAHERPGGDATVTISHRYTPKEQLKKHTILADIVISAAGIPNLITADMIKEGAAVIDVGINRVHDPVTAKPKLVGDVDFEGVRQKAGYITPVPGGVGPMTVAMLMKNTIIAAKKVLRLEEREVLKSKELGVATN
Assay: MTHFD2 Activity Assay (dehydrogenase activity, diaphorase/resazurin coupled fluorescence)
Type: biochemical
Settings: inhibitory activity (IC50 and/or binding constant); 0.2 nM MTHFD2, 11 concentrations
Description: Human MTHFD2 (residues 36-350 in Uniport ID P13995) was expressed as an N-terminal His6 tagged protein and purified in E. coli using nickel capture followed by size-exclusion chromatography.
MTHFD2 dehydrogenase activity oxidizes methylene tetrahyrofolate to methenyl-tetrahydrofolate with the concomitant reduction of NAD to NADH. MTHFD2 dehydrogenase activity was followed by coupling the generation of NADH to diaphorase catalyzed […] of resazurin to fluorescent resorufin. Briefly, control (DMSO) or compound was incubated with 0.2 nM MTHFD2 for 15 minutes in 10.5 μl assay buffer containing 100 mM Hepes, pH 8.0, 5 mM MgCl2, 5 mM KH2PO4, 0.05% BSA, 0.01% Tween-20 in a 384 well Griener, low volume, black plate. 10 μl of substrate buffer containing 70 μM CH2-THF, 1 mM NAD^+, 100 μM Resazurin and 0.42 mg/ml diaphorase was then added to initiate the reaction and the reaction plate was incubated for 30 minutes. 5 μl of 250 mM EDTA was then added to each well to stop the reaction and MTHFD2 activity was quantified by measuring resorufin fluorescence emission at 598 nm following excitation at 525 nm. Activity in positive control wells containing the complete reaction mixture and DMSO alone was set to 100% while activity in negative control wells with the complete reaction mix without MTHFD2 was set to 0%. 11 concentrations of each compound were tested and the fluorescent data at each concentration was normalized to the positive and negative controls and represented as % inhibition. Median inhibitory concentration (IC50) was calculated by fitting % inhibition at each concentration to a 4 parameter logistic fit equation using Graphpad Prizm.
The compound numbers correspond to the compound numbers in Table A (i.e., the example numbers).

Row | SMILES | IC50
1 | C[C@H](O)CNc1nc2c(c(=O)n(Cc3ccc(Cl)c(F)c3)c(=O)n2C)n1C [Example 25, 1-[(4-chloro-3-fluorophenyl)methyl]-8-{[(2S)-2-hydroxypropyl]amino}-3,7-dimethyl-2,3,6,7-tetrahydro-1H-purine-2,6-dione] | 1 to 5 µM
2 | Cn1c(Nc2cccc(C3CCC(O)C3)n2)nc2c1c(=O)n(Cc1cc3c(Cl)cccc3[nH]1)c(=O)n2C (stereo not drawn) [Example 351, 1-((4-chloro-1H-indol-2-yl)methyl)-8-(6-(3-hydroxycyclopentyl)pyridin-2-ylamino)-3,7-dimethyl-1H-purine 2,6(3H,7H)-dione] | 0.01 to 1 µM
3 | COc1cccc2[nH]c(Cn3c(=O)c4c(nc(Nc5ccncc5)n4C)n(C)c3=O)cc12 [Example 370, 1-((4-methoxy-1H-indol-2-yl)methyl)-3,7-dimethyl-8-(pyridin-4-ylamino)-1H-purine-2,6(3H,7H)-dione] | 0.01 to 1 µM
4 | Cn1c(N)nc2c1c(=O)n(Cc1cc3cc(Cl)ccc3[nH]1)c(=O)n2C [Example 241, 8-amino-1-((5-chloro-1H-indol-2-yl)methyl)-3,7-dimethyl-1H-purine-2,6(3H,7H)-dione] | 5 to 10 µM
5 | Cn1c(N2CC(O)C2)nc2c1c(=O)n(Cc1cc3ccccc3[nH]1)c(=O)n2C [Example 192, 1-((1H-indol-2-yl)methyl)-8-(3-hydroxyazetidin-1-yl)-3,7-dimethyl-1H-purine-2,6(3H,7H)-dione] | 1 to 5 µM
6 | Cn1c(Nc2cccc(CCCO)n2)nc2c1c(=O)n(Cc1ccc(Cl)c(Cl)c1)c(=O)n2C [Example 293, 1-(3,4-dichlorobenzyl)-8-(6-(3-hydroxypropyl)pyridin-2-ylamino)-3,7-dimethyl-1H-purine-2,6(3H,7H)-dione] | 0.01 to 1 µM
7 | Cn1c(Nc2ccnc(C3CC(C(N)=O)C3)c2)nc2c1c(=O)n(Cc1ccc(Cl)c(Cl)c1)c(=O)n2C (stereo not drawn) [Example 319, 3-(4-(1-(3,4-dichlorobenzyl)-3,7-dimethyl-2,6-dioxo-2,3,6,7-tetrahydro-1H-purin-8-ylamino)pyridin-2-yl)cyclobutanecarboxamide] | 0.01 to 1 µM
8 | Cn1c(=O)n(Cc2ccc(Cl)c(Cl)c2)c(=O)c2c1ncn2CC(N)=O [Example 246, 2-(1-(3,4-dichlorobenzyl)-3-methyl-2,6-dioxo-2,3-dihydro-1H-purin-7(6H)-yl)acetamide] | > 10 µM
9 | Cn1c(Nc2ccncc2)nc2c1c(=O)n(Cc1cc3c(Cl)cccc3[nH]1)c(=O)n2C [Example 285, 1-((4-chloro-1H-indol-2-yl)methyl)-3,7-dimethyl-8-(pyridin-4-ylamino)-1H-purine-2,6(3H,7H)-dione] | 0.01 to 1 µM
10 | Cn1c(NC[C@H](O)CO)nc2c1c(=O)n(Cc1ccc(Cl)cc1)c(=O)n2C [Example 16, 1-[(4-chlorophenyl)methyl]-8-{[(2S)-2,3-dihydroxypropyl]amino}-3,7-dimethyl-2,3,6,7-tetrahydro-1H-purine-2,6-dione] | > 10 µM
11 | COc1ccc(Nc2nc3c(c(=O)n(Cc4cc5c(Cl)cccc5[nH]4)c(=O)n3C)n2C)cn1 [Example 380, 1-((4-chloro-1H-indol-2-yl)methyl)-8-(6-methoxypyridin-3-ylamino)-3,7-dimethyl-1H-purine-2,6(3H,7H)-dione] | 0.01 to 1 µM
12 | Cn1c(Nc2ccncc2)nc2c1c(=O)n(Cc1cc3c(Br)cccc3[nH]1)c(=O)n2C [Example 348, 1-((4-bromo-1H-indol-2-yl)methyl)-3,7-dimethyl-8-(pyridin-4-ylamino)-1H-purine-2, 6(3H,7H)-dione] | 5 to 10 µM
13 | Cn1c(N[C@H]2CCOC2)nc2c1c(=O)n(Cc1ccc(Cl)c(Cl)c1)c(=O)n2C [Example 49, 1-[(3,4-dichlorophenyl)methyl]-3,7-dimethyl-8-{[(3S)-oxolan-3-yl]amino}-2,3,6,7-tetrahydro-1H-purine-2,6-dione] | 0.01 to 1 µM
14 | Cn1c(NC2CCCC(C(=O)O)C2)nc2c1c(=O)n(Cc1ccc3cc[nH]c3c1)c(=O)n2C (stereo not drawn) [Example 260, 3-(1-((1H-indol-6-yl)methyl)-3,7-dimethyl-2,6-dioxo-2,3,6,7-tetrahydro-1H-purin-8-ylamino)cyclohexanecarboxylic acid] | 0.01 to 1 µM

Next, values leading:

Row | IC50 | SMILES
15 | 0.01 to 1 µM | CN(C)C(=O)CCc1nccc(Nc2nc3c(c(=O)n(Cc4cc5c(Cl)cccc5[nH]4)c(=O)n3C)n2C)n1 [Example 405, 3-(4-(1-((4-chloro-1H-indol-2-yl)methyl)-3,7-dimethyl-2,6-dioxo-2,3,6,7-tetrahydro-1H-purin-8-ylamino)pyrimidin-2-yl)-N,N-dimethylpropanamide]
16 | 0.01 to 1 µM | Cn1c(C2CCCN2)nc2c1c(=O)n(Cc1cc3c(Cl)cccc3[nH]1)c(=O)n2C (stereo not drawn) [Example 424, 1-[(4-chloro-1H-indol-2-yl)methyl]-3,7-dimethyl-8-pyrrolidin-2-yl-purine-2,6-dione]
17 | 5 to 10 µM | Cn1c(C(N)C2COC2)nc2c1c(=O)n(Cc1cc3c(Cl)cccc3[nH]1)c(=O)n2C (stereo not drawn) [Example 467, 8-[amino(oxetan-3-yl)methyl]-1-[(4-chloro-1H-indol-2-yl)methyl]-3,7-dimethyl-purine-2,6-dione]
18 | 0.01 to 1 µM | Cn1c(N[C@H]2CCC[C@@H]2O)nc2c1c(=O)n(Cc1cc3c(Cl)cccc3[nH]1)c(=O)n2C [Example 403, 1-((4-chloro-1H-indol-2-yl)methyl)-8-((1S,2S)-2-hydroxycyclopentylamino)-3,7-dimethyl-1H-purine-2,6(3H,7H)-dione]
19 | 0.01 to 1 µM | CC(N)c1nc2c(c(=O)n(Cc3ccc4c(C5CC5)cccc4c3)c(=O)n2C)n1C (stereo not drawn) [Example 452, 8-(1-aminoethyl)-1-((5-cyclopropylnaphthalen-2-yl)methyl)-3,7-dimethyl-1H-purine-2,6(3H,7H)-dione]
20 | 0.01 to 1 µM | Cn1c(Nc2ccc(CO)cc2)nc2c1c(=O)n(Cc1cc3c(Cl)cccc3[nH]1)c(=O)n2C [Example 432, 1-((4-chloro-1H-indol-2-yl)methyl)-8-(4-(hydroxymethyl)phenylamino)-3,7-dimethyl-1H-purine-2,6(3H,7H)-dione]
21 | 0.01 to 1 µM | CC(CN)c1nc2c(c(=O)n(Cc3cc4c(Cl)cccc4[nH]3)c(=O)n2C)n1C (stereo not drawn) [Example 485, 8-(1-aminopropan-2-yl)-1-((4-chloro-1H-indol-2-yl)methyl)-3,7-dimethyl-1H-purine-2,6(3H,7H)-dione]
22 | 0.01 to 1 µM | Cn1c(Nc2ccnc(CCC(=O)N3CCCC3)n2)nc2c1c(=O)n(Cc1cc3c(Cl)cccc3[nH]1)c(=O)n2C [Example 417, 1-((4-chloro-1H-indol-2-yl)methyl)-3,7-dimethyl-8-(2-(3-oxo-3-(pyrrolidin-1-yl)propyl)pyrimidin-4-ylamino)-1H-purine-2,6(3H,7H)-dione]
23 | 0.01 to 1 µM | Cn1c(Nc2ccncc2)nc2c1c(=O)n(Cc1cc3c(Cl)ccc(F)c3[nH]1)c(=O)n2C [Example 474, 1-((4-chloro-7-fluoro-1H-indol-2-yl)methyl)-3,7-dimethyl-8-(pyridin-4-ylamino)-1H-purine-2,6(3H,7H)-dione]
24 | 0.01 to 1 µM | C/C(=N/O)c1nc2c(c(=O)n(Cc3cc4c(Cl)cccc4[nH]3)c(=O)n2C)n1C [Example 481, (Z)-1-((4-chloro-1H-indol-2-yl)methyl)-8-(1-(hydroxyimino)ethyl)-3,7-dimethyl-1H-purine-2,6(3H,7H)-dione or (E)-1-((4-chloro-1H-indol-2-yl)methyl)-8-(1-(hydroxyimino)ethyl)-3,7-dimethyl-1H-purine-2,6(3H,7H)-dione]
25 | 0.01 to 1 µM | Cn1c(Nc2ccncc2)nc2c1c(=O)n(Cc1ccc3c(Cl)cccc3c1)c(=O)n2C [Example 402, 1-((5-chloronaphthalen-2-yl)methyl)-3,7-dimethyl-8-(pyridin-4-ylamino)-1H-purine-2,6(3H,7H)-dione]
26 | 0.01 to 1 µM | Cn1c(C(N)C2CCOCC2)nc2c1c(=O)n(Cc1cc3c(Cl)cccc3[nH]1)c(=O)n2C (stereo not drawn) [Example 454, 8-[amino(tetrahydropyran-4-yl)methyl]-1-[(4-chloro-1H-indol-2-yl)methyl]-3,7-dimethyl-purine-2,6-dione]
27 | 0.01 to 1 µM | C/C(=N\O)c1nc2c(c(=O)n(Cc3cc4c(Cl)cccc4[nH]3)c(=O)n2C)n1C [Example 478, (E)-1-((4-chloro-1H-indol-2-yl)methyl)-8-(1-(hydroxyimino)ethyl)-3,7-dimethyl-1H-purine-2,6(3H,7H)-dione or (Z)-1-((4-chloro-1H-indol-2-yl)methyl)-8-(1-(hydroxyimino)ethyl)-3,7-dimethyl-1H-purine-2,6(3H,7H)-dione]
